The values below come from PubChem BioAssay (NCI).

Each structure is given as a SMILES string.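 1) Cells in 96-well plates. 2) Compound, 48 h, 5 concentrations. 3) Linear interpolation between surrounding doses. 4) Unreached endpoint = highest concentration. TGI: total growth inhibition.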

Test systems include HOP-18 NSCLC; SNB-78 CNS; XF 498 CNS; DMS 114 small cell lung; KM20L2 colon; DMS 273 small cell lung; DLD-1 colon; LXFL 529 NSCLC.
What all share (test): NCI-60 cell line screen, 48 h

For the compound `CC(C)(c1ccccc1)c1ccc(OC#N)cc1`, the TGI in the assay with HOP-18 NSCLC is over 100 µM; with SNB-78 CNS, over 100 µM; with XF 498 CNS, over 100 µM; with DMS 114 small cell lung, over 53.9 µM; in the assay on KM20L2 colon, over 100 µM; with DMS 273 small cell lung, 30.7 µM. Besides, the TGI in the assay on DLD-1 colon is over 62.5 µM; in the assay with LXFL 529 NSCLC, over 100 µM.
